Source: ChEMBL document CHEMBL5316344, “Homologation of the Alkyl Side Chain of Antimitotic Phenyl 4-(2-Oxo-3-alkylimidazolidin-1-yl)benzenesulfonate Prodrugs Selectively Targeting CYP1A1-Expressing Breast Cancers Improves Their Stability in Rodent Liver Microsomes” (J Med Chem, 2023)
pIC50, pKi: −log10 of the molar value.

Assays:
MCF7 = assay: Antiproliferative activity against human MCF7 cells expressing CYP1A1 assessed as cell growth inhibition incubated for 48 hrs by sulforhodamine B assay; assay type: functional, cell-based; conditions: MCF7, 48 h
HT-29 = assay: Antiproliferative activity against human HT-29 cells assessed as cell growth inhibition incubated for 48 hrs by sulforhodamine B assay; assay type: functional, cell-based; conditions: HT-29, 48 h
M21 = assay: Antiproliferative activity against human M21 cells assessed as cell growth inhibition incubated for 48 hrs by sulforhodamine B assay; assay type: functional, cell-based; conditions: M21, 48 h
[1] = Selectivity ratio, ratio of IC50 for antiproliferative activity against human HT-29 cells to IC50 for antiproliferative activity against human MCF7 cells expressing CYP1A1; assay type: functional
[2] = Selectivity ratio, ratio of IC50 for antiproliferative activity against human M21 cells to IC50 for antiproliferative activity against human MCF7 cells expressing CYP1A1; assay type: functional
[3] = Stability in human liver microsomes assessed as half life incubated for 60 mins by HPLC analysis; assay type: ADME, Microsome
[4] = Stability in mouse liver microsomes assessed as half life incubated for 60 mins by HPLC analysis; assay type: ADME, Microsome
[5] = Stability in rat liver microsomes assessed as half life incubated for 60 mins by HPLC analysis; assay type: ADME, Microsome
[6] = Stability in human liver microsomes assessed as intrinsic clearance incubated for 60 mins by HPLC analysis; assay type: ADME, Microsome; conditions: read-out: CLH
[7] = Stability in mouse liver microsomes assessed as intrinsic clearance incubated for 60 mins by HPLC analysis; assay type: ADME, Microsome; conditions: read-out: CLH
[8] = Stability in rat liver microsomes assessed as intrinsic clearance incubated for 60 mins by HPLC analysis; assay type: ADME, Microsome; conditions: read-out: CLH
Cytochrome P450 1A1 = biological target: T1, Cytochrome P450 1A1 (Homo sapiens, UniProt P04798); assay: Binding affinity to human CYP1A1 assessed as inhibition of conversion of 7-ethoicyresorufin into fluorescent resorufin by measuring inhibition constant preincubated for 5 mins followed by […] addition measured every minute for 15 mins by EROD assay; assay type: ADME
T1 sequence (P04798 whole entry): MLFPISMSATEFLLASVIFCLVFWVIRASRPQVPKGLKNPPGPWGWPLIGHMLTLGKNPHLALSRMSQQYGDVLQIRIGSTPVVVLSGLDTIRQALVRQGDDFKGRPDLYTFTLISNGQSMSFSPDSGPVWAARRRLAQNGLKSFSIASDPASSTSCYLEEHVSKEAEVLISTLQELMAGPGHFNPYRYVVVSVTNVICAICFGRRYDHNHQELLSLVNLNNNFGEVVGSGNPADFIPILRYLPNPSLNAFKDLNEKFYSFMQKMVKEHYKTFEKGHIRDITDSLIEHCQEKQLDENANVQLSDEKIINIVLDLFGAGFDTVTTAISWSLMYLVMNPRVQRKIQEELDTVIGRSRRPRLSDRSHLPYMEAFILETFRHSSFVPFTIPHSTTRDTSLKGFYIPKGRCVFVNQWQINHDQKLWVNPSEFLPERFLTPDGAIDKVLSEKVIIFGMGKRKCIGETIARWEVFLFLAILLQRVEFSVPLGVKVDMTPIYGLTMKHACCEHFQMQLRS

Row | pIC50 (MCF7) | pIC50 (HT-29) | SMILES | pIC50 (M21) | also measured
1 | < 4.90 | < 4.90 | CCCCCN1CCN(c2ccc(S(=O)(=O)Oc3ccc(F)c(F)c3)cc2)C1=O | < 4.90 | –
2 | 6.60 | < 5.90 | CCCCCCN1CCN(c2ccc(S(=O)(=O)Oc3cc(Cl)cc(Cl)c3)cc2)C1=O | < 5.90 | Ratio IC50 [1]: >5; Ratio IC50 [2]: >5
3 | < 5.90 | < 5.90 | CCCCCCCCN1CCN(c2ccc(S(=O)(=O)Oc3cc(Cl)cc(Cl)c3)cc2)C1=O | < 5.90 | –
4 | < 5.90 | < 5.90 | CCCCCCCCN1CCN(c2ccc(S(=O)(=O)Oc3cccc(Cl)c3)cc2)C1=O | < 5.90 | –
5 | < 5.90 | < 5.90 | CCCCCCCCN1CCN(c2ccc(S(=O)(=O)Oc3cccc(F)c3)cc2)C1=O | < 5.90 | –
6 | – | – | CCCCN1CCN(c2ccc(S(=O)(=O)Oc3cccc(Cl)c3)cc2)C1=O | – | half-life [3]: 126 min; half-life [4]: 13.3 min; half-life [5]: 22 min; microsomal CLint [6]: 11 µL/min/mg; microsomal CLint [7]: 104 µL/min/mg; microsomal CLint [8]: 65 µL/min/mg
7 | 6.00 | < 4.90 | CCCCCN1CCN(c2ccc(S(=O)(=O)Oc3cc(F)cc(F)c3)cc2)C1=O | < 4.90 | Ratio IC50 [1]: >13; Ratio IC50 [2]: >13
8 | < 5.90 | < 5.90 | CCCCCCCCN1CCN(c2ccc(S(=O)(=O)Oc3cc(Br)cc(Br)c3)cc2)C1=O | < 5.90 | –
9 | < 5.90 | < 5.90 | CCCCCCCCN1CCN(c2ccc(S(=O)(=O)Oc3ccc(F)c(F)c3)cc2)C1=O | < 5.90 | –
10 | < 5.90 | < 5.90 | CCCCCCCCN1CCN(c2ccc(S(=O)(=O)Oc3ccc(OC)cc3)cc2)C1=O | < 5.90 | –
11 | < 5.90 | < 5.90 | CCCCCCN1CCN(c2ccc(S(=O)(=O)Oc3ccc(OC)c(OC)c3)cc2)C1=O | < 5.90 | –
12 | < 5.90 | < 5.90 | CCCCCCCCN1CCN(c2ccc(S(=O)(=O)Oc3ccc(OC)c(OC)c3)cc2)C1=O | < 5.90 | –
13 | 5.74 | < 5.60 | CCCCCCN1CCN(c2ccc(S(=O)(=O)Oc3cccc(Cl)c3)cc2)C1=O | < 5.60 | Ratio IC50 [1]: >1.4; Ratio IC50 [2]: >1.4
14 | 6.59 | < 4.90 | CCCCCN1CCN(c2ccc(S(=O)(=O)Oc3cccc(OC)c3)cc2)C1=O | < 4.90 | Ratio IC50 [1]: >48; Ratio IC50 [2]: >48
15 | < 5.90 | < 5.90 | CCCCCCCCN1CCN(c2ccc(S(=O)(=O)Oc3cccc(Br)c3)cc2)C1=O | < 5.90 | –
16 | 6.40 | < 5.60 | CCCCCCN1CCN(c2ccc(S(=O)(=O)Oc3cc(F)cc(F)c3)cc2)C1=O | < 5.60 | Ratio IC50 [1]: >6.3; Ratio IC50 [2]: >6.3
17 | < 4.60 | < 4.60 | CCCCCN1CCN(c2ccc(S(=O)(=O)Oc3ccccc3)cc2)C1=O | < 4.60 | –
18 | < 5.60 | < 5.60 | CCCCCCN1CCN(c2ccc(S(=O)(=O)Oc3cccc(F)c3)cc2)C1=O | < 5.60 | –
19 | – | – | CCCCN1CCN(c2ccc(S(=O)(=O)Oc3cccc(I)c3)cc2)C1=O | – | half-life [3]: 100 min; half-life [4]: 12.3 min; half-life [5]: 12.7 min; microsomal CLint [6]: 14 µL/min/mg; microsomal CLint [7]: 109 µL/min/mg; microsomal CLint [8]: 109 µL/min/mg
20 | 6.85 | < 5.60 | CCCCCCN1CCN(c2ccc(S(=O)(=O)Oc3cc(OC)c(OC)c(OC)c3)cc2)C1=O | < 5.60 | Ratio IC50 [1]: >18; Ratio IC50 [2]: >18
21 | < 5.60 | < 5.60 | CCCCCCN1CCN(c2ccc(S(=O)(=O)Oc3ccccc3OC)cc2)C1=O | < 5.60 | –
22 | – | – | CCCN1CCN(c2ccc(S(=O)(=O)Oc3cc(OC)c(OC)c(OO)c3)cc2)C1=O | – | half-life [3]: 109 min; half-life [4]: 8 min; half-life [5]: 71 min; microsomal CLint [6]: 13 µL/min/mg; microsomal CLint [7]: 174 µL/min/mg; microsomal CLint [8]: 19.5 µL/min/mg
23 | < 5.90 | < 5.90 | CCCCCCN1CCN(c2ccc(S(=O)(=O)Oc3cc(OC)cc(OC)c3)cc2)C1=O | < 5.90 | –

Row | pIC50 (MCF7) | pIC50 (HT-29) | SMILES | pIC50 (M21) | also measured
24 | < 5.90 | < 5.90 | CCCCCCCCN1CCN(c2ccc(S(=O)(=O)Oc3cc(F)cc(F)c3)cc2)C1=O | < 5.90 | –
25 | 6.52 | < 4.90 | CCCCCN1CCN(c2ccc(S(=O)(=O)Oc3cccc(Br)c3)cc2)C1=O | < 4.90 | Ratio IC50 [1]: >42; Ratio IC50 [2]: >42
26 | < 5.60 | < 5.60 | CCCCCCN1CCN(c2ccc(S(=O)(=O)Oc3cccc(OC)c3)cc2)C1=O | < 5.60 | –
27 | 6.15 | < 4.90 | CCCCCN1CCN(c2ccc(S(=O)(=O)Oc3ccc(OC)c(OC)c3)cc2)C1=O | 6.30 | Ratio IC50 [1]: >18; Ratio IC50 [2]: >18
28 | < 4.90 | < 4.90 | CCCCCN1CCN(c2ccc(S(=O)(=O)Oc3ccc(OC)cc3)cc2)C1=O | < 4.90 | –
29 | < 5.90 | < 5.90 | CCCCCCCCN1CCN(c2ccc(S(=O)(=O)Oc3ccccc3)cc2)C1=O | < 5.90 | –
30 | < 5.60 | < 5.60 | CCCCCCCCN1CCN(c2ccc(S(=O)(=O)Oc3ccccc3OC)cc2)C1=O | < 5.60 | –
31 | < 5.90 | < 5.90 | CCCCCCCCN1CCN(c2ccc(S(=O)(=O)Oc3cccc(I)c3)cc2)C1=O | < 5.90 | –
32 | 5.96 | < 5.90 | CCCCCCN1CCN(c2ccc(S(=O)(=O)Oc3cccc(I)c3)cc2)C1=O | < 5.90 | Ratio IC50 [1]: >1.1; Ratio IC50 [2]: >1.1
33 | < 6.30 | < 6.30 | CCCCCN1CCN(c2ccc(S(=O)(=O)Oc3cc(Br)cc(Br)c3)cc2)C1=O | < 6.30 | –
34 | – | – | O=c1cc(-c2ccccc2)oc2c1ccc1ccccc12 [ALPHA-NAPHTHOFLAVONE] | – | pKi (Cytochrome P450 1A1): 7.30
35 | < 5.60 | < 5.60 | CCCCCCN1CCN(c2ccc(S(=O)(=O)Oc3ccc(F)c(F)c3)cc2)C1=O | < 5.60 | –
36 | 6.92 | < 5.90 | CCCCCCN1CCN(c2ccc(S(=O)(=O)Oc3cc(Br)cc(Br)c3)cc2)C1=O | 6.14 | Ratio IC50 [1]: >10; Ratio IC50 [2]: 6.1
37 | 5.92 | < 4.90 | CCCCCN1CCN(c2ccc(S(=O)(=O)Oc3cccc(F)c3)cc2)C1=O | < 4.90 | Ratio IC50 [1]: >10; Ratio IC50 [2]: >10
38 | < 5.90 | < 5.90 | CCCCCCN1CCN(c2ccc(S(=O)(=O)Oc3cccc(Br)c3)cc2)C1=O | < 5.90 | –
39 | < 5.60 | < 5.60 | CCCCCCCCN1CCN(c2ccc(S(=O)(=O)Oc3cc(OC)cc(OC)c3)cc2)C1=O | < 5.60 | –
40 | < 5.90 | < 5.90 | CCCCCCCCN1CCN(c2ccc(S(=O)(=O)Oc3cc(OC)c(OC)c(OC)c3)cc2)C1=O | < 5.90 | –
41 | < 5.60 | < 5.60 | CCCCCCN1CCN(c2ccc(S(=O)(=O)Oc3ccccc3)cc2)C1=O | < 5.60 | –
42 | < 5.60 | < 5.60 | CCCCCCCCN1CCN(c2ccc(S(=O)(=O)Oc3cccc(OC)c3)cc2)C1=O | < 5.60 | –
43 | < 4.90 | < 4.90 | CCCCCN1CCN(c2ccc(S(=O)(=O)Oc3ccccc3OC)cc2)C1=O | < 4.90 | –
44 | – | – | CCCCN1CCN(c2ccc(S(=O)(=O)Oc3cc(OC)cc(OC)c3)cc2)C1=O | – | half-life [3]: 67 min; half-life [4]: 10.5 min; half-life [5]: 93 min; microsomal CLint [6]: 20.7 µL/min/mg; microsomal CLint [7]: 133 µL/min/mg; microsomal CLint [8]: 15 µL/min/mg
45 | < 5.90 | < 5.90 | CCCCCCN1CCN(c2ccc(S(=O)(=O)Oc3ccc(OC)cc3)cc2)C1=O | < 5.90 | –
46 | – | – | CCCCN1CCN(c2ccc(S(=O)(=O)Oc3cc(Cl)cc(Cl)c3)cc2)C1=O | – | half-life [3]: 89 min; half-life [4]: 15.4 min; half-life [5]: 47 min; microsomal CLint [6]: 16 µL/min/mg; microsomal CLint [7]: 90 µL/min/mg; microsomal CLint [8]: 29 µL/min/mg
